Data reported in patent US5760214A, “Bone resorption inhibition/osteogenesis promotion compound” (Iskra Industry Co., Ltd., priority 1993, dated 1998).

Experiments:
[1] = system: synthesis of bone proteins; settings: cell level, U.S. Pat. No. 4,925,833; cited from earlier work
[2] = system: osteoblast originating from the calvaria of Whister rats; assay: Osteogenesis Test (1) (Experiment 3), von Kossa dyeing; type: cell-based; settings: 10^-8 M, addition in calcification period
Description: A first generation incubation system of the osteoblast originating from the calvaria of Whister rats (female, 6-months' age) was used as the test cells. After the start of incubation, the sample drug (compound 1-3) was added once a day to the medium in a dose of 10^-6 M, 10^-8 M or 10^-9 M on the second and third days (propagation period). Alternatively, the compound 1-3 in the amount described above was added once a day to the medium for 4 days (calcification period) from the seventh day from the start of incubation. On the fourteenth day from the start of incubation, the cells were subjected to von Kossa dyeing and detection of phosphates was carried out. The area of the bone knots which were dyed to brown was confirmed by the naked eye and was used as the index for osteogenesis.

[3] = Intracorporeal Distribution of Compound (Experiment 1); type: in vivo; settings: mice, 20 μCi/20 g; for drug concentration in blood: i.v. tail vein, 3H, mean; for drug quantity in tissue: brain / drug quantity in tissue: muscle / drug quantity in tissue: stomach: i.v.
Description: The compound 1-3 produced in Synthesis Example 1-3 was subjected to radioactive labelling by ^3 H (0.34 mCi/mg), and was injected into the vein of the tail of mice in a dosage of 20 μCi/20 g. Groups of mice each comprising five mice were killed at 1 minute, 5 minutes, 15 minutes, 30 minutes, 1 hour, 4 hours, 6 hours, 24 hours, 48 hours and 72 hours after the injection, and 50 μl of the blood was collected from the eye socket of each mouse. Further, the heart, the womb, the small intestine, bones (thighbone), etc., were collected from each mouse, and 50 mg of the tissue (50 μl for the blood) was placed into a plastic test tube. Further, 0.2 ml of perchloric acid, 0.4 ml of hydrogen peroxide and a drop of n-octyl alcohol were put into the test tube, and the test tube was left in a water bath at 75° C. for 45 minutes. Next, 0.1 ml of this digestive fluid was sampled and was placed into a bottle storing a scintillating solution and furthermore, 5 ml of 0.5% scintillating solution was mixed. After the solution became transparent, it was placed into an FJ2105 liquid scintillation counter so as to measure radioactivity and to determine cpm of the sample. Separately, dpm of 52 samples obtained from four groups of animals was measured (External Standard Method).
The quantity of the drug inside the tissue was determined in the following way.
Drug quantity in tissue (cpm/mg)=(sample cpm).div.(digested tissue quantity (mg))
Drug quantity in tissue (μg/mg)=(sample cpm/mg×6)[…](count efficiency (E)×2.22×10^7 ×0.34 mCi/mg (specific radioactivity))

mice = assay: Acute Toxicity Test (Experiment 2); type: in vivo, mice (Kunming species); settings: for No. of dead animals: of 10 animals
Description: The compound 1-3 was pale yellow crystalline poweder and its lot number was 930113. The solution was a pale yellow transparent solution, and has a concentration of 50 mg/ml and a pH of about 5. It was offered from Osteoporosis Research Laboratory, Department of Pharmacy, West China University of Medical Science School (WCUMS).
Kunming species mice, health: first class, weight: 18 to 21 g, half male and half female. The mice were offered from Experimental Animal Center of WCUSM.
Four to five dose groups were prepared in equal ratios (1:0.7 to 0.8) within the LD range of 0 to 100% obtained by preliminary tests. The drug for peroral administration was prepared by suspending the solid compound 1-3 in 1% CMCNa2 to form a suspension. For injection, drug solutions having different concentrations were prepared by dissolving the compound 1-3 in physiological saline solution by a low specific gravity dilution method. The animals were starved (but without limiting water), and 20 hours later, ten mice were grouped at random into each group irrespective of their sex and body weight. The drug was dosed once a day in a dose of 0.2 ml/10 g and the animals were inspected. Dead animals were dissected and any change of the morbid state was examined with by the naked eye.
After the chemical was dosed once in the maximum concentration and in the maximum capacity for peroral administration to 20 mice (10 males and 10 females), the animals were examined for 7 days. […] The maximum tolerance dose (MTD) was >6 g/kg.

[4] = peroral, maximum concentration, single dose, 7 days

CN(C)[C@@H]1C(O)=C(C(N)=O)C(=O)[C@@]2(O)C(O)=C3C(=O)c4c(O)cccc4[C@@](C)(O)[C@H]3C[C@@H]12 [tetracycline]
synthesis of bone proteins [1]: promotes the synthesis of bone proteins

CN(C)C1C(=O)C(C(=O)NCN2CCN(CCOc3ccc4c(c3)CCC3C4CCC4(C)C(=O)CCC34)CC2)=C(O)C2(O)C(=O)C3=C(O)c4c(O)cccc4C(C)(O)C3CC12 (stereo not shown) [Compound 1-3, N-4-[17-oxy-estra-1,3,5 (10)-trien-3-oxyethyl]-piperazine-1-methylene-tetracycline]
Osteogenesis promotion function, calcification period [2]: .uparw. .uparw. | drug concentration in blood ([3]; 1 min): 8665 cpm/50 μl | drug concentration in blood ([3]; 5 min): 5238 cpm/50 μl | drug concentration in blood ([3]; 15 min): 2638 cpm/50 μl | drug concentration in blood ([3]; 30 min): 2347 cpm/50 μl | drug concentration in blood ([3]; 1 hr): 952 cpm/50 μl | drug concentration in blood ([3]; 4 hr): 659 cpm/50 μl | drug concentration in blood ([3]; 6 hr): 715 cpm/50 μl | drug concentration in blood ([3]; 24 hr): 523 cpm/50 μl | drug concentration in blood ([3]; 48 hr): 272 cpm/50 μl | drug concentration in blood ([3]; 72 hr): 190 cpm/50 μl | drug quantity in tissue: brain ([3]; 1 min): 20 cpm/mg tissue | drug quantity in tissue: muscle ([3]; 1 min): 28 cpm/mg tissue | drug quantity in tissue: stomach ([3]; 1 min): 30 cpm/mg tissue | drug quantity in tissue: brain ([3]; 5 min): 13 cpm/mg tissue | drug quantity in tissue: muscle ([3]; 5 min): 32 cpm/mg tissue | drug quantity in tissue: stomach ([3]; 5 min): 39 cpm/mg tissue | drug quantity in tissue: brain ([3]; 15 min): 9 cpm/mg tissue | drug quantity in tissue: muscle ([3]; 15 min): 15 cpm/mg tissue | drug quantity in tissue: stomach ([3]; 15 min): 28 cpm/mg tissue | drug quantity in tissue: brain ([3]; 30 min): 10 cpm/mg tissue | drug quantity in tissue: muscle ([3]; 30 min): 22 cpm/mg tissue | drug quantity in tissue: stomach ([3]; 30 min): 32 cpm/mg tissue | drug quantity in tissue: brain ([3]; 1 hour): 7 cpm/mg tissue | drug quantity in tissue: muscle ([3]; 1 hour): 11 cpm/mg tissue | drug quantity in tissue: stomach ([3]; 1 hour): 12 cpm/mg tissue | drug quantity in tissue: brain ([3]; 4 hours): 7 cpm/mg tissue | drug quantity in tissue: muscle ([3]; 4 hours): 7 cpm/mg tissue | drug quantity in tissue: stomach ([3]; 4 hours): 10 cpm/mg tissue | drug quantity in tissue: brain ([3]; 6 hours): 6 cpm/mg tissue | drug quantity in tissue: muscle ([3]; 6 hours): 6 cpm/mg tissue | drug quantity in tissue: stomach ([3]; 6 hours): 9 cpm/mg tissue | drug quantity in tissue: brain ([3]; 24 hours): 4 cpm/mg tissue | drug quantity in tissue: muscle ([3]; 24 hours): 4 cpm/mg tissue | drug quantity in tissue: stomach ([3]; 24 hours): 6 cpm/mg tissue | drug quantity in tissue: brain ([3]; 48 hours): 4 cpm/mg tissue | drug quantity in tissue: muscle ([3]; 48 hours): 5 cpm/mg tissue | drug quantity in tissue: stomach ([3]; 48 hours): 4 cpm/mg tissue | drug quantity in tissue: brain ([3]; 72 hours): 3 cpm/mg tissue | drug quantity in tissue: muscle ([3]; 72 hours): 4 cpm/mg tissue | drug quantity in tissue: stomach ([3]; 72 hours): 3 cpm/mg tissue | toxicity (mice): its toxicity was extremely low | activity / behaviour after injection (mice; after intravenous injection): activity of the mice decreased and then the mice started jumping and went into spasm | difference between the sexes of the dead animals (mice; after intravenous injection): No difference was found between the sexes of the dead animals | eyeball, incontinence (mice; after intravenous injection): The eyeball protruded and changed to white, and incontinence of urine and feces was observed | time of death of poisoned animals (mice; after intravenous injection): the major proportion of the poisoned animals died instantly, an extremely few survived were also dead within 24 hours | change of the morbid state in dissection (mice; dead animals, naked eye): any change of the morbid state could not at all be observed by the naked eye | death ratio (mice; i.v. tail vein, 102.4 mg/kg): 0% | provit unit (Y) (mice; i.v. tail vein, 102.4 mg/kg): 2.60 | No. of dead animals (mice; i.v. tail vein, 102.4 mg/kg): 0 | death ratio (mice; i.v. tail vein, 128 mg/kg): 20% | provit unit (Y) (mice; i.v. tail vein, 128 mg/kg): 4.16 | No. of dead animals (mice; i.v. tail vein, 128 mg/kg): 2 | death ratio (mice; i.v. tail vein, 160 mg/kg): 80% | provit unit (Y) (mice; i.v. tail vein, 160 mg/kg): 5.84 | No. of dead animals (mice; i.v. tail vein, 160 mg/kg): 8 | death ratio (mice; i.v. tail vein, 200 mg/kg): 100% | provit unit (Y) (mice; i.v. tail vein, 200 mg/kg): 7.40 | No. of dead animals (mice; i.v. tail vein, 200 mg/kg): 10 | death ratio (mice; i.v. tail vein, 250 mg/kg): 100% | No. of dead animals (mice; i.v. tail vein, 250 mg/kg): 10 | LD50 (mice; i.v. tail vein, Bliss method): 143.11 mg/kg | LD50, range of 95% reliability limit (mice; i.v. tail vein, Bliss method): 132.95 to 154.05 mg/kg | LD50 (mice; intravenous injection, tail vein): 143.11 mg/kg | abnormality in the mice (mice; [4]): no abnormality was found in the mice | death of mice (mice; [4]): no mouse was dead
